Here are results for two molecules from ChEMBL document CHEMBL3734721 (J Med Chem, 2015).

Usually IC50 stands for the concentration needed to halve the response being measured. As usually defined, the EC50 is the concentration giving half of the maximal effect. In general, Cmax refers to the peak of the concentration-time curve.

Data set [1] can be described thus: Chemical stability of compound in 0.1N NaOH assessed as compound remaining at 10 mg/ml after 2 days. Format: physicochemical. Conditions: read-out: Stability.
Data set [2] addresses 5-hydroxytryptamine receptor 1A (Homo sapiens, UniProt P08908). Put plainly: Antagonist activity at human 5-HT1A receptor expressed in CHO-K1 cells assessed as seretonin-induced cAMP level by HTRF assay. It is filed as functional, cell-based.
The target of data set [3] is T1, 5-hydroxytryptamine receptor 6 (Homo sapiens, UniProt P50406). Put plainly: Antagonist activity at human 5-HT6 receptor expressed in 1321N1 cells assessed as seretonin-induced cAMP by HTRF assay. Format: functional, cell-based. In general terms: In TR-FRET formats the signal depends on donor and acceptor labels being close together.
Data set [4] addresses T2, Alpha-1A adrenergic receptor (Homo sapiens, UniProt P35348).
T2 sequence (P35348 whole entry): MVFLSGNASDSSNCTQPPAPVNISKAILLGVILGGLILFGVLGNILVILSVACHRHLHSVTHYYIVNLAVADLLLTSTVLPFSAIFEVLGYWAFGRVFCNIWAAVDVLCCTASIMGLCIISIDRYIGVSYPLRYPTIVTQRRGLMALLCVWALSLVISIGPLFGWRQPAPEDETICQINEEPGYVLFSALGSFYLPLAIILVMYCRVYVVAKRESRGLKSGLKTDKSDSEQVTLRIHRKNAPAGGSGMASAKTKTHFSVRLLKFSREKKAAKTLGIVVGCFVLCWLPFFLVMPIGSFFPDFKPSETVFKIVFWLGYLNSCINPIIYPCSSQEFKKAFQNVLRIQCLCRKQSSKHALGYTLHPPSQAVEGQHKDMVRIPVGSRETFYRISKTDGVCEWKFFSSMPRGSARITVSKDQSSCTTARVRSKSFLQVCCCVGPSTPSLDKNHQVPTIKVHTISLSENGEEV
The experiment in a line: Antagonist activity at human wild-type alpha 1A receptor expressed in CHO cells assessed as EP-induced calcium by HTRF assay. Format: functional, cell-based.

Data set [5] deals with T3, Type-1 angiotensin II receptor (Homo sapiens, UniProt P30556).
T3 sequence (P30556 whole entry): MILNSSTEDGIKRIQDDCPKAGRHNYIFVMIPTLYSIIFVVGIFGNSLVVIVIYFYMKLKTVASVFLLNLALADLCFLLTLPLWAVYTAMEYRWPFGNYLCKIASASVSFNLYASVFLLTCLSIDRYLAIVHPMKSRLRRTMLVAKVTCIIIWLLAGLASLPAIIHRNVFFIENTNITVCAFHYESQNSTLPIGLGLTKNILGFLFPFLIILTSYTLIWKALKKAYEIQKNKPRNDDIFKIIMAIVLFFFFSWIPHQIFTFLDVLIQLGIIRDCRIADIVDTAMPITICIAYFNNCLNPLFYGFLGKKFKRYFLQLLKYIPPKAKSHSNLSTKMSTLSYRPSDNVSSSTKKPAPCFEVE
Put plainly: Antagonist activity at human wild-type AGTR1 receptor expressed in CHO-K1 cells assessed as angiotensin-2-induced calcium by FDSS assay. Format: functional, cell-based.

The target of data set [6] is Muscarinic acetylcholine receptor M3 (Homo sapiens, UniProt P20309). The experiment in a line: Antagonist activity at human wild-type M3 receptor expressed in CHO-K1 cells assessed as acetylcholine-induced calcium by FDSS assay. Format: functional, cell-based.
The target of data set [7] is T4, Muscarinic acetylcholine receptor M2 (Homo sapiens, UniProt P08172).
T4 sequence (P08172 whole entry): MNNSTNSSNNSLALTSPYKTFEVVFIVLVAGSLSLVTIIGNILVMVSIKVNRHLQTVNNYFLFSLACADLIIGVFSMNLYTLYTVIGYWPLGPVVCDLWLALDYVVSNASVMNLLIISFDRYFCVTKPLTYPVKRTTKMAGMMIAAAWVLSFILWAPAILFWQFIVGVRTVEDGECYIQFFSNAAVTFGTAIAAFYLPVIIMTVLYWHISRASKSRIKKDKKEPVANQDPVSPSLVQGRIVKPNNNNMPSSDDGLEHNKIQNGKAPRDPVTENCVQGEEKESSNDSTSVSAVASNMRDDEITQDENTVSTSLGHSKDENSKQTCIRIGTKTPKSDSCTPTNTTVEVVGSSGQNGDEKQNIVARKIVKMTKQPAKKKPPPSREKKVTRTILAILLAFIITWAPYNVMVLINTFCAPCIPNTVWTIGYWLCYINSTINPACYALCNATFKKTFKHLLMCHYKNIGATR
Put plainly: Antagonist activity at human wild-type M2 receptor expressed in CHO-K1 cells assessed as acetylcholine-induced cAMP by HTRF assay. Format: functional, cell-based.

The next data set deals with T5, Endothelin-1 receptor (Homo sapiens, UniProt P25101).
T5 sequence (P25101 whole entry): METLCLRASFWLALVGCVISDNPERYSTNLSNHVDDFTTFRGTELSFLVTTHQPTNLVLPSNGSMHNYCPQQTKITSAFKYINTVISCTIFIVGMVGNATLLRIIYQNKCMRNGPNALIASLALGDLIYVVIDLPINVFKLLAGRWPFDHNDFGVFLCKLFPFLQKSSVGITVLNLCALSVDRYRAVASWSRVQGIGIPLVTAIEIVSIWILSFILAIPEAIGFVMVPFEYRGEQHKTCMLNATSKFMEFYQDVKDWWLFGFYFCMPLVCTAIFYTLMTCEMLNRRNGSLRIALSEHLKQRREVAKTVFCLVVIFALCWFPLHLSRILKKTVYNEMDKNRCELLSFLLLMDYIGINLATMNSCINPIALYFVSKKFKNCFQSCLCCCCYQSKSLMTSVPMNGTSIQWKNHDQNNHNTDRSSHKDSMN
The experiment in a line: Antagonist activity at human wild-type ETA receptor expressed in CHO-K1 cells assessed as endothelin-1-induced calcium by HTRF assay. Format: functional, cell-based.

Data set [8] has as its target T1, 5-hydroxytryptamine receptor 6. Put plainly: Agonist activity at human 5-HT6 receptor expressed in 1321N1 cells assessed as cAMP by HTRF assay. It is filed as functional, cell-based.
For data set [9], the target named is T2, Alpha-1A adrenergic receptor. The experiment in a line: Agonist activity at human wild-type alpha 1A receptor expressed in CHO cells assessed as calcium level by HTRF assay. Format: functional, cell-based.
The target in data set [10] is T6, Alpha-2C adrenergic receptor (Homo sapiens, UniProt P18825).
T6 sequence (P18825 whole entry): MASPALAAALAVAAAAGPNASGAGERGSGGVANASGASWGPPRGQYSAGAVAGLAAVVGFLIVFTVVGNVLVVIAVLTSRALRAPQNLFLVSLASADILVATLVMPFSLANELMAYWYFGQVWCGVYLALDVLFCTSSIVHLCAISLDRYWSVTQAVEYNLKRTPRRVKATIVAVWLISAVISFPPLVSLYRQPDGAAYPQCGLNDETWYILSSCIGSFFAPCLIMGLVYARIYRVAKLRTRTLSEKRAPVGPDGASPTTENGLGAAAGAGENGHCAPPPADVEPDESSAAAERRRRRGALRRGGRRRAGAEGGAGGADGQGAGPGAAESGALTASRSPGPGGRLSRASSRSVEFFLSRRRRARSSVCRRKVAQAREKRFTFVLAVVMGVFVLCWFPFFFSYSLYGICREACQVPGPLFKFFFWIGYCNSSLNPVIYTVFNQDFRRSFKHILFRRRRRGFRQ
Put plainly: Agonist activity at human wild-type alpha 2C receptor expressed in CHO-K1 cells assessed as cAMP level by HTRF assay. It is filed as functional, cell-based.

For a further data set, the target named is Cytochrome P450 2D6 (Homo sapiens, UniProt P10635). The experiment in a line: Inhibition of human CYP2D6 by LC-MS analysis. It is filed as ADME.
A short description of data set [11]: Cmax in Swiss mouse brain at 5 mg/kg, sc. It is filed as ADME, organism-based. Further details: dose 5 mg/kg, route subcutaneous.

T1 sequence (P50406 whole entry): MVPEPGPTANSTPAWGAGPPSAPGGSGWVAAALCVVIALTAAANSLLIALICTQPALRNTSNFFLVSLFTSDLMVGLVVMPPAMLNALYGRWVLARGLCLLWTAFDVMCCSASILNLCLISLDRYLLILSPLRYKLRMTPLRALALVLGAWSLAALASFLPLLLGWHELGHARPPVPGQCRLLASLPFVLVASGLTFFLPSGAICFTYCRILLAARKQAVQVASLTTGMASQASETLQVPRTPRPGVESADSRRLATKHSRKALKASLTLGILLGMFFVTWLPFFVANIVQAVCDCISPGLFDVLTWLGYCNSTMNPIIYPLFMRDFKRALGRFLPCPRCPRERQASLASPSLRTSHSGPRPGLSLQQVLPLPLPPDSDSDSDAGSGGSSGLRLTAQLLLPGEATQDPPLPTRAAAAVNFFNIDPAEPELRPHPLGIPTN
Chain of Muscarinic acetylcholine receptor M3 (P20309 whole entry): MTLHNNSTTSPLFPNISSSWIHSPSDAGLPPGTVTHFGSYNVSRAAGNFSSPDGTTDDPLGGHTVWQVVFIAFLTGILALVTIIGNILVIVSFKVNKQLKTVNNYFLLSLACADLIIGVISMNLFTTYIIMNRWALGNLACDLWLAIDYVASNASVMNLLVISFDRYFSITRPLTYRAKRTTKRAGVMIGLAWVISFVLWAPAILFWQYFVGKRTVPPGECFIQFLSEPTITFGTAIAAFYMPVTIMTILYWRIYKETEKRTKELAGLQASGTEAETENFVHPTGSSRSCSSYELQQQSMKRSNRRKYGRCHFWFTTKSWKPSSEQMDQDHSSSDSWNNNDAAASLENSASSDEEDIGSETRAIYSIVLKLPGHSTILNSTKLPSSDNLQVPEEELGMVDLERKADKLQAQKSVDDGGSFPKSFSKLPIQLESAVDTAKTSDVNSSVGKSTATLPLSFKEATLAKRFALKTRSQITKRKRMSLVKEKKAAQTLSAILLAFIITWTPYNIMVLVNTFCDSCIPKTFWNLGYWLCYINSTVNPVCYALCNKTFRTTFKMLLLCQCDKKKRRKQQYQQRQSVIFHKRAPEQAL
Chain of 5-hydroxytryptamine receptor 1A (P08908 whole entry): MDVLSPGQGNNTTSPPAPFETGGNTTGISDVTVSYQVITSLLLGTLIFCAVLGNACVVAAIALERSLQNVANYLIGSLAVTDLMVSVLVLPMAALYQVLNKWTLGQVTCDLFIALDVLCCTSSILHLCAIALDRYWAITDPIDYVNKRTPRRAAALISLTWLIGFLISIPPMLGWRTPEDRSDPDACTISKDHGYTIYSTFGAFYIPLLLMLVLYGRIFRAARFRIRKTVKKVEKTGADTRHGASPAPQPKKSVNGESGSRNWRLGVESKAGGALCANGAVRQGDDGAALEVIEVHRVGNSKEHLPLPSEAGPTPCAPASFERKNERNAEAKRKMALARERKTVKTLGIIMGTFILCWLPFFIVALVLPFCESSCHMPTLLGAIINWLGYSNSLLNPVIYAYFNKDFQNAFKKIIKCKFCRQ
Chain of Cytochrome P450 2D6 (P10635 whole entry): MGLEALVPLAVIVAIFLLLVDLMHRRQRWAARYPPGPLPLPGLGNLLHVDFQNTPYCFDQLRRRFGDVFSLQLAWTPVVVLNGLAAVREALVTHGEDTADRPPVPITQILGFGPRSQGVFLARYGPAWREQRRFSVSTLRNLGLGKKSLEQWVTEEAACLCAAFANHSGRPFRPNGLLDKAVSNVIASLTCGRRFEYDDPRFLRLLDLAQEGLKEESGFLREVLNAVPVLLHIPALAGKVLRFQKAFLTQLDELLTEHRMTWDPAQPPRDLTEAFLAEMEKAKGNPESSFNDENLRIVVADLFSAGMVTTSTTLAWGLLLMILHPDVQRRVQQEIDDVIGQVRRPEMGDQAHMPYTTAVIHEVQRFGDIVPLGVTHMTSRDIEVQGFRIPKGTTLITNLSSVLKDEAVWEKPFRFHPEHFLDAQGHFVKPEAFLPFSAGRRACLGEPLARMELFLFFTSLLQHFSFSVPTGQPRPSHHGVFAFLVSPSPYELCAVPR

In the case of `CB1C=Cc2cccc(OCC(O)CNC(C)C)c2N1` (stereo unspecified), in [1], the remaining at 48 h, 10 mg/ml worked out at 82%. Further, the IC50 in data set [2], in data set [3], in [4], in data set [5], in data set [6] and in [7] was greater than 5.01 µM each time. The concentration for half-maximal inhibition (IC50) on Endothelin-1 receptor is greater than 5.01 µM; against Cytochrome P450 2D6, 0.398 µM. The EC50 in data set [8], in [9] and in data set [10] was greater than 5.01 µM throughout. Besides, in data set [11], the peak concentration (Cmax) came to 7 µM.
Regarding `CB1C=Cc2c(cccc2OCC(O)CN(C)C)N1` (stereo unspecified), the remaining at 48 h, 10 mg/ml in data set [1] was 83%. Moreover, the IC50 in data set [2] was 2 µM; in [3], greater than 5.01 µM; in [4], greater than 5.01 µM; in data set [5] it was greater than 5.01 µM; in [6], greater than 5.01 µM; in [7], greater than 5.01 µM. The IC50 is greater than 5.01 µM on Endothelin-1 receptor and 2.51 µM at Cytochrome P450 2D6. For the same molecule, the concentration giving a half-maximal response (EC50) in [8], in data set [9] and in [10] was greater than 5.01 µM throughout. Also, the concentration in data set [11] peaked (Cmax) at 62 µM.
